Experimental data taken from ChEMBL document CHEMBL5291721, “A preclinical secondary pharmacology resource illuminates target-adverse drug reaction associations of marketed drugs” (Nat Commun, 2023).

Experiments:
Estrogen receptor = target: T1, Estrogen receptor (Homo sapiens, UniProt P03372)
T1 sequence (P03372 whole entry): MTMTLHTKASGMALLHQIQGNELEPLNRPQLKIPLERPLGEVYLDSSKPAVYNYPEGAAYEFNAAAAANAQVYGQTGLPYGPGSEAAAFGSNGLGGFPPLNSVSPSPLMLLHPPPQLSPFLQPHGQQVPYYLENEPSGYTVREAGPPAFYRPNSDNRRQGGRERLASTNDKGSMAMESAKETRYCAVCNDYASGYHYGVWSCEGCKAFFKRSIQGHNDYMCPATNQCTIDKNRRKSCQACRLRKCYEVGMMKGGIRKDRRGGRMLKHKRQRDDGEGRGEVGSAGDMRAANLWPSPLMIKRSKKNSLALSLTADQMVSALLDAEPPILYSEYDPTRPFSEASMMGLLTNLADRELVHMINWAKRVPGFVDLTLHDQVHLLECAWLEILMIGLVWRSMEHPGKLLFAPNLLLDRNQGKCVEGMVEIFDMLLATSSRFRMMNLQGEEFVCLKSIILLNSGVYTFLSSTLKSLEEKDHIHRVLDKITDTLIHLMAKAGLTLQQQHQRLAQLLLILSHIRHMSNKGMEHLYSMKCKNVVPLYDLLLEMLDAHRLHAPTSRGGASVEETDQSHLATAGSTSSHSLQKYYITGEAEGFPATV

[1] = target: Gamma-aminobutyric acid receptor subunit alpha-1 (Rattus norvegicus, UniProt P62813)
Chain of Gamma-aminobutyric acid receptor subunit alpha-1 (P62813 whole entry): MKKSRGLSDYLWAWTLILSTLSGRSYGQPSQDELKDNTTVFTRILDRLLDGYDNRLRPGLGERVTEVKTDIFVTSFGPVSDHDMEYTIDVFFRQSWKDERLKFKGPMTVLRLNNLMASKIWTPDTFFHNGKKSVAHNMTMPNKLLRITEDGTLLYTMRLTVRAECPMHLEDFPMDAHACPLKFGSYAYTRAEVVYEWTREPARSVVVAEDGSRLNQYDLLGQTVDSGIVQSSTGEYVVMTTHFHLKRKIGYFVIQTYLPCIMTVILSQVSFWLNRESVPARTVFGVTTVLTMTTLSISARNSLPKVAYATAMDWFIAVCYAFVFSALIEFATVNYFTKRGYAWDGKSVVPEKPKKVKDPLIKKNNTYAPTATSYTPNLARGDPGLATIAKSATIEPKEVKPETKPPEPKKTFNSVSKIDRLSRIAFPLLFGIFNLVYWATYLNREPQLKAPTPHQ

[2] = target: Sodium-dependent serotonin transporter (Homo sapiens, UniProt P31645)
Chain of Sodium-dependent serotonin transporter (P31645 whole entry): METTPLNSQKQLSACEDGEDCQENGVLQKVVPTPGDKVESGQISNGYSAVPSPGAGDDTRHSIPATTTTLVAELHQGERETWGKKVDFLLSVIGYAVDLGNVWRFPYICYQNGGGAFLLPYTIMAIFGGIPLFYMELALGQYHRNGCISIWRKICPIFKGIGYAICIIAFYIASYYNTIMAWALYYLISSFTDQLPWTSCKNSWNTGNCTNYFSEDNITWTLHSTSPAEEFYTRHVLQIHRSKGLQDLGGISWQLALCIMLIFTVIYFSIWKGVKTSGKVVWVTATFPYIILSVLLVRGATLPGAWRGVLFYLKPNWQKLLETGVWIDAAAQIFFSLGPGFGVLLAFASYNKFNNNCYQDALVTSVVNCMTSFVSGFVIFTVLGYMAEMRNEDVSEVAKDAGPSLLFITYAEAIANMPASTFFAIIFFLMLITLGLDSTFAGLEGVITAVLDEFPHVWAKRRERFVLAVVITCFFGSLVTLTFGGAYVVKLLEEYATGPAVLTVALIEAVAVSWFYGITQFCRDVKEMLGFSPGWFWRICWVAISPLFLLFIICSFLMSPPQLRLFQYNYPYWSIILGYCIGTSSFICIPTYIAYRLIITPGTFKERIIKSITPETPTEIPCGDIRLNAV

[3] = target: T2, Amine oxidase [flavin-containing] A (Homo sapiens, UniProt P21397); format: functional
T2 sequence (P21397 whole entry): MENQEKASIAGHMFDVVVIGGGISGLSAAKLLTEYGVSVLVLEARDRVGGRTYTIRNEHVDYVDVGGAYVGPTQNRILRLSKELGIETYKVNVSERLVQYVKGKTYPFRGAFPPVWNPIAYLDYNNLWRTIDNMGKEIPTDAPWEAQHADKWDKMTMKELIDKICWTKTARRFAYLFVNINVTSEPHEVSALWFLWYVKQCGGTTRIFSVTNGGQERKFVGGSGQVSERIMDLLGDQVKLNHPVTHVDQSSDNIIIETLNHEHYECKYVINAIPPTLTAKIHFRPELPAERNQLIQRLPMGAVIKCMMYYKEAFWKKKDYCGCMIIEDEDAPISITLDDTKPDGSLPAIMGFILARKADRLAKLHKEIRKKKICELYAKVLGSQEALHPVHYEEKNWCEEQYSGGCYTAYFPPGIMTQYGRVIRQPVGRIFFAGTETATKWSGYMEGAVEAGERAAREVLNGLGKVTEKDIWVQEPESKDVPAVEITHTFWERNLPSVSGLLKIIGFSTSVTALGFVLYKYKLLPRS

[4] = target: Kappa-type opioid receptor (Homo sapiens, UniProt P41145)
Chain of Kappa-type opioid receptor (P41145 whole entry): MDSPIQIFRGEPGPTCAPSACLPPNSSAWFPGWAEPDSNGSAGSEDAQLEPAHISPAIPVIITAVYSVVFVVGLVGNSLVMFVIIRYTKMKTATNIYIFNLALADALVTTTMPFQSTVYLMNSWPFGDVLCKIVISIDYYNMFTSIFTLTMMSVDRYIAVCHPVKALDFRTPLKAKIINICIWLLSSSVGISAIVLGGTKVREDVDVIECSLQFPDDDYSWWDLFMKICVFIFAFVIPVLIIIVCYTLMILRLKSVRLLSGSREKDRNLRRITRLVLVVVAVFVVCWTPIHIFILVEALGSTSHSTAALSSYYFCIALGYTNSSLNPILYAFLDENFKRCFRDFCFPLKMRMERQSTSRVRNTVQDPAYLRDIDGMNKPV

Mu-type opioid receptor = Mu-type opioid receptor (Homo sapiens, UniProt P35372)
Chain of Mu-type opioid receptor (P35372 whole entry): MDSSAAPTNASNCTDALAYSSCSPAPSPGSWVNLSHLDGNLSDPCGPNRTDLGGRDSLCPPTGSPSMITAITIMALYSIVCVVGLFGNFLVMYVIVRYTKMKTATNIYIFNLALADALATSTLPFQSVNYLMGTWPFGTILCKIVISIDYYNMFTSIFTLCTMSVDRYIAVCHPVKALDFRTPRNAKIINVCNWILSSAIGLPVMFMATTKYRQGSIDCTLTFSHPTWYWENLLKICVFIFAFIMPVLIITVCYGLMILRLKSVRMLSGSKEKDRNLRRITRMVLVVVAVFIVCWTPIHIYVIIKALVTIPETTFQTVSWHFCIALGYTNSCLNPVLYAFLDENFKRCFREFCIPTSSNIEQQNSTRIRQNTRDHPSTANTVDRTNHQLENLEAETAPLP

Thromboxane A2 receptor = target: T3, Thromboxane A2 receptor (Homo sapiens, UniProt P21731)
T3 sequence (P21731 whole entry): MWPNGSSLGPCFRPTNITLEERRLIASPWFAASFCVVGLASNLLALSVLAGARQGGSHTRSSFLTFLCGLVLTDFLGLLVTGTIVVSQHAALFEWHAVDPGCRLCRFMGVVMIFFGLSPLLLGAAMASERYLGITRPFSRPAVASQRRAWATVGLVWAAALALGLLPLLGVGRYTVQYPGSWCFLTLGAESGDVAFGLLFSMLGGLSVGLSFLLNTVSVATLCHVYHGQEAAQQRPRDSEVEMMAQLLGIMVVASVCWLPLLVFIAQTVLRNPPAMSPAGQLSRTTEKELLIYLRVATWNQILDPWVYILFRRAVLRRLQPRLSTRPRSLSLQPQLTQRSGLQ

[5] = target: T4, Cholecystokinin receptor type A (Homo sapiens, UniProt P32238)
T4 sequence (P32238 whole entry): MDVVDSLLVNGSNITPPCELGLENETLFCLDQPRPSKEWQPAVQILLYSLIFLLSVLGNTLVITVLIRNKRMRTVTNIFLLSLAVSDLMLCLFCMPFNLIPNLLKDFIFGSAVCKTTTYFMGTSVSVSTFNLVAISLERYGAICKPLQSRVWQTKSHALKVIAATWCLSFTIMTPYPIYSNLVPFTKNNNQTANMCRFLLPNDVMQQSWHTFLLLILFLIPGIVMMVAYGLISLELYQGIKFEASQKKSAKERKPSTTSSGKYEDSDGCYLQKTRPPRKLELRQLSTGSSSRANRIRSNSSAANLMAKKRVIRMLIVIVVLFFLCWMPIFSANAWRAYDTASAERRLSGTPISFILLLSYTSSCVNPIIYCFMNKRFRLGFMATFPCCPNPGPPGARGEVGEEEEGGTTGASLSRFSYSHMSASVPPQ

Vasopressin V2 receptor = Vasopressin V2 receptor (Homo sapiens, UniProt P30518)
Chain of Vasopressin V2 receptor (P30518 whole entry): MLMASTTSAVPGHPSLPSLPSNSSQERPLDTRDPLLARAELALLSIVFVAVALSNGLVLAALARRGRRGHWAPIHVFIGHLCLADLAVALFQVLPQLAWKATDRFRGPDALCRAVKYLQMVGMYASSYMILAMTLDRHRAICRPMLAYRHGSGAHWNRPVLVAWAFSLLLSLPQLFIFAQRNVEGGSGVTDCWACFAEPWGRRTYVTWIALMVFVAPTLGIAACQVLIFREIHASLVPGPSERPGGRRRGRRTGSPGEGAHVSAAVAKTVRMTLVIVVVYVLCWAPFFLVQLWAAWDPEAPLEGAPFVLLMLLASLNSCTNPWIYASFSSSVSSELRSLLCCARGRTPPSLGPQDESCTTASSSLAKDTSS

D(3) dopamine receptor = D(3) dopamine receptor (Homo sapiens, UniProt P35462)
Chain of D(3) dopamine receptor (P35462 whole entry): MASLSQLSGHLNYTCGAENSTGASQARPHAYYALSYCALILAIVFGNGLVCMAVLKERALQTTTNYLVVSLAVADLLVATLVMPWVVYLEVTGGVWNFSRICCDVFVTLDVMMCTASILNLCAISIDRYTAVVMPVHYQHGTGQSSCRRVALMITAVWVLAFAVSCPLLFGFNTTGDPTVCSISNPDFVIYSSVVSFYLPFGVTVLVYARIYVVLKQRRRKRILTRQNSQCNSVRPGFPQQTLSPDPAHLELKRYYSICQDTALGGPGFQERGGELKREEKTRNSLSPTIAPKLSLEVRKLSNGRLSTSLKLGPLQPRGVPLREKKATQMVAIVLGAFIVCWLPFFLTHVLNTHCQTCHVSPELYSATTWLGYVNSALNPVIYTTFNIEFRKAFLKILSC

[6] = target: Beta-1 adrenergic receptor (Homo sapiens, UniProt P08588); format: functional
Chain of Beta-1 adrenergic receptor (P08588 whole entry): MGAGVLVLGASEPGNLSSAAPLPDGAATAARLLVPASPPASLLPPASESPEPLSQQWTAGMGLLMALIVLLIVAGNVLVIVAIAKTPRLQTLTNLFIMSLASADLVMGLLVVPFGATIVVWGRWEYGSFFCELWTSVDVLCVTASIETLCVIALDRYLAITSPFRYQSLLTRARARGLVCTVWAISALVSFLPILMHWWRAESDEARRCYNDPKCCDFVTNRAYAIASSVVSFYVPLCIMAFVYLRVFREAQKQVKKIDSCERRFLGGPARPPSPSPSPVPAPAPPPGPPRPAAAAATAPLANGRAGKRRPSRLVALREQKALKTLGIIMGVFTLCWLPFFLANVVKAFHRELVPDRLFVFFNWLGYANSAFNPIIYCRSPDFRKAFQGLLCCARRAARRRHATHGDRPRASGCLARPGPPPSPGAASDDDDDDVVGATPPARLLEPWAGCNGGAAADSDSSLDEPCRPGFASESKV

[7] = target: T5, Prostaglandin G/H synthase 1 (Rattus norvegicus, UniProt Q63921); format: functional
T5 sequence (Q63921 whole entry): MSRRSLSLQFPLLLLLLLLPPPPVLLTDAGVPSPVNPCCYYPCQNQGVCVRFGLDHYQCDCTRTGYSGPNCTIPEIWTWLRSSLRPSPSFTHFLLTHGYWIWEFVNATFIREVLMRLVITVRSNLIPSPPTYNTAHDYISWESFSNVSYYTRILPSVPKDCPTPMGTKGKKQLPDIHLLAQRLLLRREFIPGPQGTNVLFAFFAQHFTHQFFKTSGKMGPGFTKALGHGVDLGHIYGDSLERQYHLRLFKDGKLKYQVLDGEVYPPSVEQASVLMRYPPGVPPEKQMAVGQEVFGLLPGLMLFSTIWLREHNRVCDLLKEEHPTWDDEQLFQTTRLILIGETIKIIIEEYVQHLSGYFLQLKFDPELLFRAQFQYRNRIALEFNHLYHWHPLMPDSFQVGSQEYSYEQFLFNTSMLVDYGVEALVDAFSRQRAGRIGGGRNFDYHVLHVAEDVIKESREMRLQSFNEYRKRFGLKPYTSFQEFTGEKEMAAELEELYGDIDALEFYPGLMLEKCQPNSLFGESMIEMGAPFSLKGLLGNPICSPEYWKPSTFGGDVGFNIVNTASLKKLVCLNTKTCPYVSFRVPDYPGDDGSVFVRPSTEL

Cannabinoid receptor 1 = Cannabinoid receptor 1 (Homo sapiens, UniProt P21554); format: functional, cell-based
Chain of Cannabinoid receptor 1 (P21554 whole entry): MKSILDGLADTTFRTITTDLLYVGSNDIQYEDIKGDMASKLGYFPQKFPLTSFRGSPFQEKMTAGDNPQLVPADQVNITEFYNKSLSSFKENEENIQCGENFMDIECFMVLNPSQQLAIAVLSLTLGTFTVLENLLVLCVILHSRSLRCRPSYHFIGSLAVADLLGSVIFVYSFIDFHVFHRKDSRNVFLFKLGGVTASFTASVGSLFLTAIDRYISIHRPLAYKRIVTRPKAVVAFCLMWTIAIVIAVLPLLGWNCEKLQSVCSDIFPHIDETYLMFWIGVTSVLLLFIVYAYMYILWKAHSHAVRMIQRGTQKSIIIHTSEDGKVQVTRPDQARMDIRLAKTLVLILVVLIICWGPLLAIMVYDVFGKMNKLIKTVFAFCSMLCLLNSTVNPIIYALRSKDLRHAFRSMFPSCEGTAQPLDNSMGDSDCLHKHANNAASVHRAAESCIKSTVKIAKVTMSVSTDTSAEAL
Further: assay procedure not described here.

| Structure (SMILES) | AC50 (Estrogen receptor) [µM] | AC50 [1] [µM] | AC50 [2] [µM] | also measured |
| --- | --- | --- | --- | --- |
| CC[C@H](c1ccc(O)cc1)[C@@H](CC)c1ccc(O)cc1 [HEXESTROL] | 0.0252 | > 30 | > 30 |  |
| OC[C@H]1O[C@@H](c2ccc(Cl)c(Cc3ccc(O[C@H]4CCOC4)cc3)c2)[C@H](O)[C@@H](O)[C@@H]1O [EMPAGLIFLOZIN] | > 30 | > 30 | > 30 |  |
| C/C=C/C/C=C/CCC(=O)[C@H]1O[C@H]1C(N)=O [CERULENIN] | > 30 | > 30 | > 30 |  |
| CCn1cc(C(=O)O)c(=O)c2cc3c(cc21)OCO3 [OXOLINIC ACID] |  | > 30 | > 30 |  |
| CCCN(CCC)C(=O)Cc1c(-c2ccc(Cl)cc2)nc2ccc(Cl)cn12 [ALPIDEM] | > 30 | 0.02 |  | AC50 [3]: > 30 µM; AC50 [4]: 13 µM; AC50 (Mu-type opioid receptor): > 10 µM; AC50 (Thromboxane A2 receptor): > 30 µM; AC50 [5]: > 30 µM; AC50 (Vasopressin V2 receptor): > 30 µM; AC50 (D(3) dopamine receptor): > 30 µM; AC50 [6]: > 30 µM; AC50 [7]: > 30 µM |
| Nc1ccc(C(=O)Oc2ccccc2)c(O)c1 [PHENYL AMINOSALICYLATE] | > 30 | > 30 | > 30 |  |
| C=CCN1CC[C@]23CCCC[C@H]2[C@H]1Cc1ccc(O)cc13 [LEVALLORPHAN] |  | > 30 | > 30 |  |
| COc1cc2nc(N3CCN(C(=O)C4CCCO4)CC3)nc(N)c2cc1OC (stereo not given) [TERAZOSIN] | > 30 | > 30 |  | AC50 [3]: > 10 µM; AC50 (Mu-type opioid receptor): 3 µM; AC50 (Thromboxane A2 receptor): > 30 µM; AC50 [5]: > 30 µM; AC50 (Vasopressin V2 receptor): > 30 µM; AC50 (Cannabinoid receptor 1): > 30 µM; AC50 (D(3) dopamine receptor): > 30 µM; AC50 [6]: > 10 µM; AC50 [7]: > 30 µM |
| CCCC(CCC)C(=O)O [VALPROIC ACID] | > 30 | > 30 |  | AC50 [3]: > 10 µM; AC50 [4]: > 10 µM; AC50 (Mu-type opioid receptor): > 30 µM; AC50 (Thromboxane A2 receptor): > 30 µM; AC50 [5]: > 30 µM; AC50 (Vasopressin V2 receptor): > 30 µM; AC50 (D(3) dopamine receptor): 4.7 µM; AC50 [6]: > 10 µM; AC50 [7]: > 30 µM |
| N[C@@H](CO)C(=O)O [SERINE] |  | > 30 | > 30 |  |
| CC[C@@]1(O)C(=O)OCc2c1cc1n(c2=O)Cc2cc3c([N+](=O)[O-])cccc3nc2-1 [RUBITECAN] | > 30 | > 30 | > 30 |  |
| OC[C@H]1O[C@@](CO)(O[C@H]2O[C@H](CO)[C@@H](O)[C@H](O)[C@H]2O)[C@@H](O)[C@@H]1O [SUCROSE] | > 30 | > 30 |  | AC50 [3]: > 30 µM; AC50 [4]: > 30 µM; AC50 [5]: > 30 µM; AC50 (Vasopressin V2 receptor): > 30 µM; AC50 (Cannabinoid receptor 1): > 30 µM; AC50 (D(3) dopamine receptor): > 30 µM; AC50 [7]: > 30 µM |
| CC(C)C[C@H](NC(=O)CNC(=O)c1cc(Cl)ccc1Cl)B(O)O [IXAZOMIB] | > 30 | > 30 | > 30 |  |
| O=C(O)c1cc(/N=N/c2ccc(O)c(C(=O)O)c2)ccc1O [OLSALAZINE] | > 30 | > 30 | > 30 |  |
| CCOC(=O)c1c(C)cc2c(CO)n[nH]c(=O)c2c1C [OXAGRELATE] | > 30 | > 30 | > 30 |  |
| O=C1/C(=C2\Nc3ccc(S(=O)(=O)O)cc3C2=O)Nc2ccc(S(=O)(=O)O)cc21 [INDIGOTINDISULFONATE] |  | > 30 | > 30 |  |
| FC(F)(F)c1ccc(CNc2ccc(Cc3c[nH]c4ncc(Cl)cc34)cn2)cn1 [PEXIDARTINIB] | > 30 | > 30 | 8 |  |
| CN1CCC(=C2c3ccccc3Sc3ccccc32)CC1 [PIMETHIXENE] | > 30 | > 30 | 18.3 |  |
| CC(C)(O)CNc1nc(Nc2ccnc(C(F)(F)F)c2)nc(-c2cccc(C(F)(F)F)n2)n1 [ENASIDENIB] | > 30 | > 30 | > 30 |  |
| CN1C(C(=O)Nc2ccccn2)=C(O)c2ccccc2S1(=O)=O [PIROXICAM] | > 30 | > 30 |  | AC50 [3]: > 30 µM; AC50 [4]: > 10 µM; AC50 (Mu-type opioid receptor): > 30 µM; AC50 (Thromboxane A2 receptor): > 10 µM; AC50 [5]: > 10 µM; AC50 (Vasopressin V2 receptor): > 10 µM; AC50 (D(3) dopamine receptor): > 30 µM; AC50 [6]: > 10 µM |
| CN(CC1(C)CCCO1)S(=O)(=O)c1ccc(Cl)c(S(N)(=O)=O)c1 (stereo not given) [MEFRUSIDE] |  | > 30 | > 30 | AC50 [3]: > 30 µM; AC50 [4]: > 30 µM; AC50 (Cannabinoid receptor 1): > 30 µM; AC50 (D(3) dopamine receptor): > 30 µM |
| CNC(=O)Oc1cccc2ccccc12 [CARBARIL] | > 30 | > 30 | > 30 |  |
| CC[C@H](C)C[C@H](C)CCCCCCCCC(=O)N[C@H]1C[C@@H](O)[C@@H](NCCN)NC(=O)[C@@H]2[C@@H](O)CCN2C(=O)[C@H]([C@H](O)CCN)NC(=O)[C@H]([C@H](O)[C@@H](O)c2ccc(O)cc2)NC(=O)[C@@H]2C[C@@H](O)CN2C(=O)[C@H]([C@@H](C)O)NC1=O [CASPOFUNGIN] | 23.1 | > 30 | > 30 |  |
| CCc1nc(C(N)=O)c(Nc2ccc(N3CCC(N4CCN(C)CC4)CC3)c(OC)c2)nc1NC1CCOCC1 [GILTERITINIB] | > 30 | > 30 | > 30 |  |
| CC[C@H]1OC(=O)[C@H](C)C(=O)[C@H](C)[C@@H](O[C@@H]2O[C@H](C)C[C@H](N(C)C)[C@H]2O)[C@](C)(OC)C[C@@H](C)C(=O)[C@H](C)[C@H]2N(CCCCn3cnc(-c4cccnc4)c3)C(=O)O[C@]12C [TELITHROMYCIN] | > 30 | > 30 | > 30 |  |
| CC(=O)Oc1cc(C(F)(F)F)ccc1C(=O)O [TRIFLUSAL] |  | > 30 | > 30 |  |
| O=C(O)CO [GLYCOLIC ACID] | > 30 | > 30 |  |  |
